Our source for the Ki values is ChEMBL document CHEMBL5729595, “MASP-2 inhibitors and methods of use” (2023).

Structures are written as SMILES. Bounds are passed on as bounds.

This experiment in a line: Enzymatic Assay for MASP-2: The assay was run at room temperature in an assay buffer containing 20 mM Hepes, pH 7.4, 140 mM NaCl and 0.1% Tween 20. Assay parameters were adjusted such that the assay was linear with respect to time, enzyme and substrate concentrations. Under these optimized assays conditions, IC50 values were equivalent to Ki values, except in a few cases of “tight binding” inhibitors. Cases of “tight binding” or possible “slow binding” inhibitors were handled by the methods described in Copeland R. A. (2013) Evaluation of Enzyme Inhibitors in Drug Discovery. 2nd Ed., John Wiley and Sons, Inc., Chapters 5-7.

As usually defined, the Ki is the dissociation constant of the complex between target and ligand, obtained from inhibition or displacement. With `C[C@H](NC(=O)[C@H]1C[C@H](c2ccccc2)CCN1)C(=O)NCc1ccc(C(=N)N)cc1`, the inhibition constant (Ki) is less than 500 nM.
